According to PMC12036750, “Screening of SIRT6 inhibitors and activators: A novel activator has an impact on breast cancer cells” (Biomedicine & pharmacotherapy = Biomedecine & …, 2021):
Values belong to the molecule of their own block, whether it stands above or below them.

Assays:
[1] = target: T1, SIRT6 (Homo sapiens, UniProt Q8N6T7); assay: HPLC deacetylation assay, single concentration […]; assay type: biochemical; details: read-out: % inhibition at 100 μM
Target sequence in this assay (Q8N6T7 whole entry): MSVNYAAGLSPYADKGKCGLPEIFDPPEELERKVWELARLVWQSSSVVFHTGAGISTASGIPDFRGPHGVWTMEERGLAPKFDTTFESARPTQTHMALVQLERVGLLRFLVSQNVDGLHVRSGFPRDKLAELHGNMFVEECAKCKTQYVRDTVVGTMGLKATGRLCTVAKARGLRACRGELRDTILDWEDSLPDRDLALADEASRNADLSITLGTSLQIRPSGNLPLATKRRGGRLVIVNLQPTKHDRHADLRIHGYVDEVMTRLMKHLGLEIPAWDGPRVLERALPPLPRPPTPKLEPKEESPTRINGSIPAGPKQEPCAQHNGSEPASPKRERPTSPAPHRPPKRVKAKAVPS

[2] = target: T1, SIRT6; assay: HPLC deacetylation assay with H3K9Ac peptide; dose response and steady-state kinetics (activation); assay type: biochemical
Target sequence in this assay (Q8N6T7 whole entry): as above

[3] = target: T2, SIRT2 (Homo sapiens, UniProt Q8IXJ6); assay: fluorogenic deacetylation assay (BioMol KI179 substrate), single concentration […]; assay type: biochemical
T2 sequence (Q8IXJ6 2-389): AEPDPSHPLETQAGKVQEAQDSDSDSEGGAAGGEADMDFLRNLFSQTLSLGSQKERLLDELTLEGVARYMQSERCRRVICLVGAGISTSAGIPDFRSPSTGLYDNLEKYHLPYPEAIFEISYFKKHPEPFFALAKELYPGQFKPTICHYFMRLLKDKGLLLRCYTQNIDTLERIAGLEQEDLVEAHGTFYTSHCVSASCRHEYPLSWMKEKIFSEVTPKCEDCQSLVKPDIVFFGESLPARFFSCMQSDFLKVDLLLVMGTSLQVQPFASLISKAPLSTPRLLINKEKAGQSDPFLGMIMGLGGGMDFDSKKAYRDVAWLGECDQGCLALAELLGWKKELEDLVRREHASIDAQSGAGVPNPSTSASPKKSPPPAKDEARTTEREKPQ

[4] = test system: T3, NC(=O)c1ccc[n+]([C@@H]2O[C@H](COP(=O)([O-])OP(=O)(O)OC[C@H]3O[C@@H](n4cnc5c(N)ncnc54)[C@H](O)[C@@H]3O)[C@@H](O)[C@H]2O)c1; assay: steady-state Michaelis-Menten kinetics by HPLC (Km, DMSO control); assay type: biochemical, Homo sapiens
T3 construct: GST-tagged recombinant SIRT6

[5] = target: T1, SIRT6; assay: fluorogenic demyristoylase assay (BPS Bioscience), myristoyl peptide substrate; assay type: biochemical
Target sequence in this assay (Q8N6T7 2-355): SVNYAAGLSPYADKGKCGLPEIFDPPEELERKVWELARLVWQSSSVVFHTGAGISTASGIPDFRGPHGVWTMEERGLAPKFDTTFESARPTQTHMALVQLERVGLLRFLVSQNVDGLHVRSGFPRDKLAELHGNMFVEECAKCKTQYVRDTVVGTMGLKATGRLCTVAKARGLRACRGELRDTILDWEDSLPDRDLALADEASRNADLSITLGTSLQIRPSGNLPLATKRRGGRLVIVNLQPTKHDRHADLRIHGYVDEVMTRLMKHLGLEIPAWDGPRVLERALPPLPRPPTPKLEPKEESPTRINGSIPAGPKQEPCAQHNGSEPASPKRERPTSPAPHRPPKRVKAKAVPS

Molecule: O=c1c(O)c(-c2ccc(O)c(O)c2)oc2cc(O)cc(O)c12 [Q, quercetin]
- inhibition at 100 µM [1]: 30%

- EC50 [2]: 80 ± 12 µM
- inhibition at 200 µM [3]: 53 ± 1.3%
Molecule: Cc1c(-c2ccccc2)oc2c(CC(=O)OCC(=O)c3ccc(O)cc3O)cccc2c1=O [compound 1, (2,4-dihydroxy-phenyl)–2-oxoethyl 2-(3-methyl-4-oxo-2-phenyl-4H-chromen-8-yl)acetate]

Molecule: SIRT6 (Homo sapiens)
- Km [4]: 1190 ± 450 µM
- kcat [4]: 0.0022 ± 0.0004 s⁻¹
- kcat/Km [4]: 1.9 M⁻¹ s⁻¹

Molecule: NC(=O)c1cccnc1 [NAM]
- inhibition at 200 µM [5]: 86 ± 13%
